The subject of assay [1] is Staphylococcus aureus. Kind of assay: Antibacterial activity against Staphylococcus aureus CGMCC1.8721 in presence of phosphatidylglycerol. Format: functional, organism-based.
The test system of assay [2] is Staphylococcus aureus. Nature of the assay: Antibacterial activity against methicillin-resistant Staphylococcus aureus CGMCC1.12409 infected in mouse model assessed as reduction in neutrophils in skin tissues at 5 mg/kg measured for 5 days by H and E staining based analysis. Format: functional, organism-based. The note with it: time 5.0 day.
In assay [3] the test system is Staphylococcus aureus. Nature of the assay: Antibacterial activity against methicillin-resistant Staphylococcus aureus CGMCC1.12409 infected in mouse model assessed as reduction in bacterial clones at 5 mg/kg measured for 5 days. Format: functional, organism-based. The note with it: time 5.0 day.
Assay [4] relates to Staphylococcus aureus. Kind of assay: Antibacterial activity against methicillin-resistant Staphylococcus aureus CGMCC1.12409 infected in mouse model assessed as reduction in abscesses size at 5 mg/kg measured for 5 days. The note with it: time 5.0 day. In kind it is functional, organism-based.
For assay [5], the system named is Staphylococcus aureus. Kind of assay: Antibacterial activity against methicillin-resistant Staphylococcus aureus CGMCC1.12409 infected in mouse model assessed as reduction in inflammation in skin tissues at 5 mg/kg measured for 5 days by H and E staining based analysis. The note with it: time 5.0 day. Format: functional, organism-based.
The test system of assay [6] is Staphylococcus aureus. Nature of the assay: Antibacterial activity against methicillin-resistant Staphylococcus aureus CGMCC1.12409 infected in mouse model assessed as reduction in bacterial load at infection site at 5 mg/kg measured for 5 days relative to control. Format: functional. More on the design: scale not given: the % may be the effect or the level left. The note with it: time 5 day.

For assay [7], the system named is Staphylococcus aureus. Nature of the assay: Bactericidal activity against methicillin-resistant Staphylococcus aureus ATCC 33591 by CLSI based method. In kind it is functional.
For assay [8], the system named is Staphylococcus aureus. Nature of the assay: Antibacterial activity against methicillin-resistant Staphylococcus aureus ATCC 33591. In kind it is functional.
Assay [9] relates to Staphylococcus aureus. Kind of assay: Antibacterial activity against methicillin-resistant Staphylococcus aureus CGMCC1.12409. In kind it is functional.
Assay [10] relates to Staphylococcus aureus. Nature of the assay: Bactericidal activity against methicillin-resistant Staphylococcus aureus CGMCC1.12409 by CLSI based method. In kind it is functional.
The test system of assay [11] is Staphylococcus aureus. Nature of the assay: Bactericidal activity against methicillin-resistant Staphylococcus aureus ATCC 43300 by CLSI based method. Format: functional.
For assay [12], the system named is Staphylococcus aureus. Nature of the assay: Antibacterial activity against methicillin-resistant Staphylococcus aureus ATCC 43300. In kind it is functional.
Assay [13] has as its system Staphylococcus aureus. Nature of the assay: Bactericidal activity against Staphylococcus aureus CGMCC1.8721 by CLSI based method. In kind it is functional.
In assay [14] the test system is Staphylococcus aureus. Nature of the assay: Antibacterial activity against Staphylococcus aureus CGMCC1.8721. In kind it is functional.
Assay [15] concerns Staphylococcus aureus. Nature of the assay: Induction of resistance development in Staphylococcus aureus CGMCC1.8721 assessed as fold increase in MIC at sub-lethal concentration following serial passages for 30 days relative to control. In kind it is functional. The note with it: time 30 day.

Calls of active or inactive are those of the source.

For the molecule `CO[C@H]1/C=C/O[C@@]2(C)Oc3c(C)c(O)c4c(O)c(c(/C=N/N5CCN(C)CC5)c(O)c4c3C2=O)NC(=O)/C(C)=C\C=C\[C@H](C)[C@H](O)[C@@H](C)[C@@H](O)[C@@H](C)[C@H](OC(C)=O)[C@@H]1C`, the result in the assay on Staphylococcus aureus [1] was Active.

Consider `CNC(C)[C@@H]1CC[C@@H](N)[C@@H](O[C@H]2[C@H](O)[C@@H](O[C@H]3OC[C@](C)(O)[C@H](NC)[C@H]3O)[C@H](N)C[C@@H]2N)O1.CN[C@@H]1[C@@H](O)[C@@H](O[C@@H]2[C@@H](O)[C@H](O[C@H]3O[C@H](C(C)N)CC[C@H]3N)[C@@H](N)C[C@H]2N)OC[C@]1(C)O.CN[C@@H]1[C@@H](O)[C@@H](O[C@@H]2[C@@H](O)[C@H](O[C@H]3O[C@H](CN)CC[C@H]3N)[C@@H](N)C[C@H]2N)OC[C@]1(C)O` (stereo partly specified), for which the outcome with Staphylococcus aureus [1] was Active.

Take `CN[C@H](CC(C)C)C(=O)N[C@H]1C(=O)N[C@@H](CC(N)=O)C(=O)N[C@H]2C(=O)N[C@H]3C(=O)N[C@H](C(=O)N[C@H](C(=O)O)c4cc(O)cc(O)c4-c4cc3ccc4O)[C@H](O)c3ccc(c(Cl)c3)Oc3cc2cc(c3O[C@@H]2O[C@H](CO)[C@@H](O)[C@H](O)[C@H]2O[C@H]2C[C@](C)(N)[C@H](O)[C@H](C)O2)Oc2ccc(cc2Cl)[C@H]1O` [VANCOMYCIN]: the result in the assay with Staphylococcus aureus [2], with Staphylococcus aureus [3], in the assay with Staphylococcus aureus [4], with Staphylococcus aureus [5] and in the assay with Staphylococcus aureus [1] was Active. Moreover, the Activity in the assay on Staphylococcus aureus [6] was 92.98%.

Take `CCCCCCCCCC(=O)N[C@@H](Cc1c[nH]c2ccccc12)C(=O)N[C@@H](CC(N)=O)C(=O)N[C@@H](CC(=O)O)C(=O)N[C@@H]1C(=O)NCC(=O)N[C@@H](CCCN)C(=O)N[C@@H](CC(=O)O)C(=O)N[C@H](C)C(=O)N[C@@H](CC(=O)O)C(=O)NCC(=O)N[C@H](CO)C(=O)N[C@@H]([C@@H](C)CC(=O)O)C(=O)N[C@@H](CC(=O)c2ccccc2N)C(=O)O[C@@H]1C`: the result with Staphylococcus aureus [1] was inactive.

For `CC[n+]1ccc2c([nH]c3ccc(OC)cc32)c1CC[C@H](C)[C@H]1CC[C@H]2[C@@H]3[C@H](O)C[C@@H]4C[C@H](O)CC[C@]4(C)[C@H]3CC[C@]12C.[Br-]`, the MBC – broadly, the smallest concentration meeting the test's criterion for killing – is 4 µg/mL against Staphylococcus aureus [7], 4 µg/mL against Staphylococcus aureus [10], 2 µg/mL with Staphylococcus aureus [11] and 2 µg/mL against Staphylococcus aureus [13]. Also, the MIC – broadly, the smallest concentration in the dilution series that meets the test's criterion for growth inhibition – against Staphylococcus aureus [8] turned out to be 2 µg/mL; in the assay with Staphylococcus aureus [9] it was 2 µg/mL; in the assay on Staphylococcus aureus [12] it was 2 µg/mL; with Staphylococcus aureus [14], 1 µg/mL.

For `COc1ccc2[nH]c3c(CC[C@H](C)[C@H]4CC[C@H]5[C@@H]6[C@H](O)C[C@@H]7C[C@H](O)CC[C@]7(C)[C@H]6C[C@H](O)[C@]45C)[n+](Cc4ccccc4C)ccc3c2c1.[Br-]`, the MBC in the assay with Staphylococcus aureus [7] was determined as 8 µg/mL; in the assay on Staphylococcus aureus [10], 8 µg/mL; in the assay with Staphylococcus aureus [11], 4 µg/mL; in the assay on Staphylococcus aureus [13] it was 1 µg/mL. Further, the MIC turned out to be 4 µg/mL against Staphylococcus aureus [8], 4 µg/mL with Staphylococcus aureus [9], 1 µg/mL in the assay with Staphylococcus aureus [12] and 0.5 µg/mL in the assay with Staphylococcus aureus [14].

In the case of `CCn1cc(C(=O)O)c(=O)c2cc(F)c(N3CCNCC3)cc21` [NORFLOXACIN], the result in the assay with Staphylococcus aureus [1] was Active. Moreover, the “fold change (FC)” value in the assay with Staphylococcus aureus [15] is recorded as 64.

For `COc1ccc2[nH]c3c(CC[C@H](C)[C@H]4CC[C@H]5[C@@H]6[C@H](O)C[C@@H]7C[C@H](O)CC[C@]7(C)[C@H]6C[C@H](O)[C@]45C)[n+](Cc4ccc(F)cc4)ccc3c2c1.[Br-]`, the MBC against Staphylococcus aureus [7] was 2 µg/mL; in the assay with Staphylococcus aureus [10], 2 µg/mL; against Staphylococcus aureus [11], 2 µg/mL; with Staphylococcus aureus [13] it was 1 µg/mL. For the same molecule, the MIC with Staphylococcus aureus [8] was found to be 2 µg/mL; in the assay on Staphylococcus aureus [9], 1 µg/mL; with Staphylococcus aureus [12] it was 1 µg/mL; in the assay on Staphylococcus aureus [14], 0.5 µg/mL.

In the case of `CCC[n+]1ccc2c([nH]c3ccc(OC)cc32)c1CC[C@H](C)[C@H]1CC[C@H]2[C@@H]3[C@H](O)C[C@@H]4C[C@H](O)CC[C@]4(C)[C@H]3CC[C@]12C.[Br-]`, the MBC against Staphylococcus aureus [7] came out at 4 µg/mL; against Staphylococcus aureus [10], 4 µg/mL; in the assay with Staphylococcus aureus [11], 2 µg/mL; against Staphylococcus aureus [13], 2 µg/mL. The MIC in the assay with Staphylococcus aureus [8] turned out to be 2 µg/mL; against Staphylococcus aureus [9] it was 2 µg/mL; in the assay with Staphylococcus aureus [12], 2 µg/mL; in the assay with Staphylococcus aureus [14], 1 µg/mL.

As for `COc1ccc2[nH]c3c(CC[C@H](C)[C@H]4CC[C@H]5[C@@H]6[C@H](O)C[C@@H]7C[C@H](O)CC[C@]7(C)[C@H]6C[C@H](O)[C@]45C)[n+](Cc4cccc(F)c4)ccc3c2c1.[Br-]`, the MBC was 2 µg/mL against Staphylococcus aureus [7], 4 µg/mL against Staphylococcus aureus [10], 2 µg/mL against Staphylococcus aureus [11] and 2 µg/mL in the assay with Staphylococcus aureus [13]. For the same molecule, the MIC came to 2 µg/mL with Staphylococcus aureus [8], 2 µg/mL against Staphylococcus aureus [9], 1 µg/mL against Staphylococcus aureus [12] and 1 µg/mL against Staphylococcus aureus [14].

(Values after ChEMBL document CHEMBL6078723, “Novel steroidal β-carboline derivatives as promising antibacterial candidates against methicillin-resistant Staphylococcus aureus” (Eur J Med Chem, 2025).)
